# pEC50: −log10 of the molar value. Counter-ions that a name gives are not always drawn.
# Molecular target: T1, human mGluR4 (Homo sapiens, UniProt Q14833)
# T1 construct: expressed in transfected cells; host or cells: Chinese Hamster Ovary (CHO) cells
# Assay: human mGluR4 potentiation assay, CHO cells, Fluo-4 calcium fluorescence, agonist EC20
# Type: cell-based
# Conditions: for Emax: CHO, maximum extent of potentiation, human mGluR4, read-out: GluMax; for pEC50: potentiation of human mGluR4 response to EC20 agonist, read-out: hEC50
# Description: The disclosed compounds and compositions can be evaluated for their ability to act as a potentiator of metabotropic glutamate receptor activity, in particular mGluR4 activity, by any suitable known methodology known in the art. For example, Chinese Hamster Ovary (CHO) cells transfected with human mGluR4 or HEK cells co-transfected with rat mGluR4 and the G-protein regulated Inwardly Rectifying Potassium channel (GIRK) were plated in clear bottom assay plates for assay in a Hamamatsu FDSS Fluorometric Plate Reader. The cells were loaded with either the Ca2+-sensitive fluorescent dye Fluo-4 or the thallium responsive dye BTC, AM and the plates were washed and placed into a suitable kinetic plate reader. For human mGluR4 assays, a fluorescence baseline was established for 3-5 seconds, the disclosed compounds were then added to the cells, and the response in cells was measured. Approximately two and a half minutes later, a concentration of mGluR4 agonist (e.g. glutamate or L-AP4) eliciting approximately 20% (EC20) of the maximal agonist response was added to the cells, and the response was measured. Two minutes later, a concentration of mGluR4 agonist (e.g. glutamate or L-AP4) eliciting 80% (EC80) of the maximal agonist response was added to the cells, and the response was measured. For rat mGluR4/GIRK experiments, a baseline was established for approximately five seconds, disclosed compounds were added, and either an EC20 or EC80 concentration of agonist was added approximately two and one half minutes later. Potentiation of the agonist response of mGluR4 by the disclosed compounds was observed as an increase in response to the EC20 concentration of agonist in the presence of compound compared to the response to agonist in the absence of compound. Similarly, antagonism of the agonist response of mGluR4 by the disclosed compounds was observed as a decrease in response to the EC80 concentration of agonist in the presence of compound compared to the response to agonist in the absence of compound.
# The above described assay operated in two modes. In the first mode, a range of concentrations of the disclosed compounds are added to cells, followed by a single fixed concentration of agonist. If the compound acts as a potentiatior, an EC50 value for potentiation and a maximum extent of potentiation by the compound at this concentration of agonist is determined by non-linear curve fitting. If the compound acts as a noncompetitive antagonist, an IC50 value is determined by non-linear curve fitting. In the second mode, several fixed concentrations of the disclosed compounds are added to various wells on a plate, followed by a range in concentrations of agonist for each concentration of disclosed compound. The EC50 values for the agonist at each concentration of compound are determined by non-linear curve fitting. A decrease in the EC50 value of the agonist with increasing concentrations of the sample compound (a leftward shift of the agonist concentration-response curve) is an indication of the degree of mGluR4 potentiation at a given concentration of the sample compound. A decrease in the maximal response of the agonist with increasing concentrations of the sample compounds, with or without a rightward shift in agonist potency, is an indication of the degree of noncompetitive antagonism at mGluR4. The second mode also indicates whether the sample compounds also affect the maximum response to mGluR4 to agonists.
# T1 sequence (Q14833 33-912): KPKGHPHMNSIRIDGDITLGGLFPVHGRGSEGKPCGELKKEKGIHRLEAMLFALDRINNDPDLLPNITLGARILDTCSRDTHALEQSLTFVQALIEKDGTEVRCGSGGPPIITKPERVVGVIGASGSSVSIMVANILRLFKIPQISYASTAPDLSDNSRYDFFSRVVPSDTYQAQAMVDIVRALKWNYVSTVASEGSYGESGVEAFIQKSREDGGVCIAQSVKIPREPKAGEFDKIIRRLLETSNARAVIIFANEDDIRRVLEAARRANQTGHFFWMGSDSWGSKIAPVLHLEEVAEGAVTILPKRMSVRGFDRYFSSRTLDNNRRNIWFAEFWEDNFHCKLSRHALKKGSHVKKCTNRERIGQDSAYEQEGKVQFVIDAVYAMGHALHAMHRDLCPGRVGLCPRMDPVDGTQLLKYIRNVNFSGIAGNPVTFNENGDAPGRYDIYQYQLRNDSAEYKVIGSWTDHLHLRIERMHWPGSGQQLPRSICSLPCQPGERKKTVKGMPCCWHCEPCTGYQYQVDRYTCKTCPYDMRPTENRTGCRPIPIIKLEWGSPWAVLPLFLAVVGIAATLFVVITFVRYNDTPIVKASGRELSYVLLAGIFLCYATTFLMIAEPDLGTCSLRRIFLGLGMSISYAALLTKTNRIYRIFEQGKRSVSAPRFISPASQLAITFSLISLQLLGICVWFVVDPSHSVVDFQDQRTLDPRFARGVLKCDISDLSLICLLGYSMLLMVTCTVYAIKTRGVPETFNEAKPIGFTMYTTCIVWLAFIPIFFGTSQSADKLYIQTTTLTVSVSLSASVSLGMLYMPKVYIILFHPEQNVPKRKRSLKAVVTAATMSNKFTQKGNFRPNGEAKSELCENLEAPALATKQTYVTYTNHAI
SMILES,Emax,pEC50
"O=S(=O)(Nc1ccccc1Br)c1ccc2[nH]c(-c3ccccc3)nc2c1 [Example 1, N-(2-Bromophenyl)-2-phenyl-1H-benzo[d]imidazole-5-sulfonamide]",60%,6.30
"O=S(=O)(Nc1ccccc1Cl)c1ccc2[nH]c(C3CCCCC3)nc2c1 [Example 4, N-(2-Chlorophenyl)-2-cyclohexyl-1H-benzo[d]imidazole-5-sulfonamide]",141%,5.75
"O=S(=O)(Nc1ccccc1Cl)c1ccc2[nH]c(-c3cnccn3)nc2c1 [Example 7, N-(2-Chlorophenyl)-2-(pyrazin-2-yl)-1H-benzo[d]imidazole-5-sulfonamide]",149%,5.83
"O=S(=O)(Nc1ccccc1Cl)c1ccc2[nH]c(-c3ccncn3)nc2c1 [Example 11, N-(2-Chlorophenyl)-2-(pyrimidin-4-yl)-1H-benzo[d]imidazole-5-sulfonamide]",148%,5.55
"O=S(=O)(Nc1ccccc1Cl)c1ccc2[nH]c(-c3cccc(Cl)n3)nc2c1 [Example 12, N-(2-Chlorophenyl)-2-(6-chloropyridin-2-yl)-1H-benzo[d]imidazole-5-sulfonamide]",98%,6.94
"O=S(=O)(Nc1cccnc1)c1ccc2[nH]c(-c3ccccc3)nc2c1 [Example 16, 2-Phenyl-N-(pyridin-3-yl)-1H-benzo[d]imidazole-5-sulfonamide bis TFA salt]",41%,5.23
"O=S(=O)(Nc1ccccc1F)c1ccc2[nH]c(-c3ccccc3)nc2c1 [Example 17, N-(2-Fluorophenyl)-2-phenyl-1H-benzo[d]imidazole-5-sulfonamide TFA salt]",87%,6.49
"O=S(=O)(NC1CCCC1)c1ccc2[nH]c(-c3ccccc3)nc2c1 [Example 18, N-Cyclopentyl-2-phenyl-1H-benzo[d]imidazole-5-sulfonamide TFA salt]",105%,4.93
"N#Cc1ccc(NS(=O)(=O)c2ccc3[nH]c(-c4ccccc4)nc3c2)cc1 [Example 19, N-(4-Cyanophenyl)-2-phenyl-1H-benzo[d]imidazole-5-sulfonamide TFA salt]",24%,5.31
"O=S(=O)(Nc1ccccc1Cl)c1ccc2[nH]c(-c3cccc4c3OCO4)nc2c1 [Example 20, 2-(benzo[d][1,3]dioxol-4-yl)-N-(2-chlorophenyl)-1H-benzo[d]imidazole-5-sulfonamide]",49%,6.76
"O=S(=O)(Nc1ccccc1Cl)c1ccc2[nH]c(-c3c(F)cccc3Cl)nc2c1 [Example 22, 2-(2-chloro-6-fluorophenyl)-N-(2-chlorophenyl)-1H-benzo[d]imidazole-5-sulfonamide]",59%,5.24
"O=S(=O)(Nc1ccccc1Cl)c1ccc2[nH]c(-c3ccccc3C(F)(F)F)nc2c1 [Example 23, N-(2-chlorophenyl)-2-(2-(trifluoromethyl)phenyl)-1H-benzo[d]imidazole-5-sulfonamide]",36%,5.03
"O=S(=O)(Nc1ccccc1Cl)c1ccc2[nH]c(-c3c(F)cccc3F)nc2c1 [Example 24, N-(2-chlorophenyl)-2-(2,6-difluorophenyl)-1H-benzo[d]imidazole-5-sulfonamide]",160%,< 5.00
"O=S(=O)(Nc1ccccc1Cl)c1ccc2[nH]c(-c3ccc(C(F)(F)F)o3)nc2c1 [Example 26, N-(2-chlorophenyl)-2-(5-(trifluoromethyl)furan-2-yl)-1H-benzo[d]imidazole-5-sulfonamide]",68%,6.48
"O=S(=O)(Nc1ccccc1Cl)c1ccc2[nH]c(-c3ncc[nH]3)nc2c1 [Example 27, N-(2-chlorophenyl)-2-(1H-imidazol-2-yl)-1H-benzo[d]imidazole-5-sulfonamide]",69%,4.89
"O=S(=O)(Nc1c(F)cccc1F)c1ccc2[nH]c(-c3ccccc3)nc2c1 [Example 28, N-(2,6-difluorophenyl)-2-phenyl-1H-benzo[d]imidazole-5-sulfonamide]",38%,6.50
"Cc1ccc(-c2nc3cc(S(=O)(=O)Nc4ccccc4Cl)ccc3[nH]2)o1 [Example 29, N-(2-chlorophenyl)-2-(5-methylfuran-2-yl)-1H-benzo[d]imidazole-5-sulfonamide]",52%,7.12
"O=S(=O)(Nc1ccccc1Cl)c1ccc2[nH]c(-c3ccc(Cl)o3)nc2c1 [Example 30, 2-(5-chlorofuran-2-yl)-N-(2-chlorophenyl)-1H-benzo[d]imidazole-5-sulfonamide]",76%,6.70
"O=S(=O)(Nc1ccccc1Cl)c1ccc2[nH]c(-c3ncc(F)cc3F)nc2c1 [Example 31, N-(2-chlorophenyl)-2-(3,5-difluoropyridin-2-yl)-1H-benzo[d]imidazole-5-sulfonamide]",123%,6.33

# Other lines, results leading:
Emax,pEC50,SMILES
77%,6.45,"O=S(=O)(Nc1ccccc1Cl)c1ccc2[nH]c(-c3ccccc3)nc2c1 [Example 2, N-(2-Chlorophenyl)-2-phenyl-1H-benzo[d]imidazole-5-sulfonamide TFA salt]"
226%,7.14,"O=S(=O)(Nc1ccccc1Cl)c1ccc2[nH]c(-c3ccccn3)nc2c1 [Example 3, N-(2-Chlorophenyl)-2-(pyridin-2-yl)-1H-benzo[d]imidazole-5-sulfonamide]"
84%,5.28,"O=S(=O)(Nc1ccccc1Cl)c1ccc2[nH]c(-c3cccnc3)nc2c1 [Example 5, N-(2-chlorophenyl)-2-(pyridin-3-yl)-1H-benzo[d]imidazole-5-sulfonamide]"
111%,6.44,"O=S(=O)(Nc1ccccc1Cl)c1ccc2[nH]c(-c3ccsc3)nc2c1 [Example 6, N-(2-Chlorophenyl)-2-(thiophen-3-yl)-1H-benzo[d]imidazole-5-sulfonamide]"
204%,5.25,"O=S(=O)(Nc1ccccc1Cl)c1ccc2[nH]c(-c3cccnn3)nc2c1 [Example 8, N-(2-chlorophenyl)-2-(pyridazin-3-yl)-1H-benzo[d]imidazole-5-sulfonamide TFA salt]"
103%,6.50,"O=S(=O)(Nc1ccccc1Cl)c1ccc2[nH]c(-c3cccs3)nc2c1 [Example 9, N-(2-Chlorophenyl)-2-(thiophen-2-yl)-1H-benzo[d]imidazole-5-sulfonamide TFA salt]"
169%,6.51,"O=S(=O)(Nc1ccccc1Cl)c1ccc2[nH]c(-c3cscn3)nc2c1 [Example 10, N-(2-Chlorophenyl)-2-(thiazol-4-yl)-1H-benzo[d]imidazole-5-sulfonamide bis TFA salt]"
145%,6.95,"O=S(=O)(Nc1ccccc1Cl)c1ccc2[nH]c(-c3cccc(F)n3)nc2c1 [Example 13, N-(2-Chlorophenyl)-2-(6-fluoropyridin-2-yl)-1H-benzo[d]imidazole-5-sulfonamide]"
194%,6.11,"O=S(=O)(Nc1ccccc1Cl)c1ccc2[nH]c(-c3nccs3)nc2c1 [Example 14, N-(2-Chlorophenyl)-2-(thiazol-2-yl)-1H-benzo[d]imidazole-5-sulfonamide]"
192%,6.13,"O=S(=O)(Nc1ccccc1Cl)c1ccc2[nH]c(-c3ncccc3F)nc2c1 [Example 15, N-(2-Chlorophenyl)-2-(3-fluoropyridin-2-yl)-1H-benzo[d]imidazole-5-sulfonamide]"
64%,6.01,"O=S(=O)(Nc1ccccc1Cl)c1ccc2[nH]c(-c3ccccc3F)nc2c1 [Example 21, N-(2-chlorophenyl)-2-(2-fluorophenyl)-1H-benzo[d]imidazole-5-sulfonamide]"
96%,6.13,"O=S(=O)(Nc1ccccc1Cl)c1ccc2[nH]c(-c3ccco3)nc2c1 [Example 25, N-(2-chlorophenyl)-2-(furan-2-yl)-1H-benzo[d]imidazole-5-sulfonamide]"

# Reference: patent publication US20120184556A1, “SUBSTITUTED ENZOIMIDAZOLESULFONAMIDES AND SUBSTITUTED INDOLESULFONAMIDES AS MGLUR4 POTENTIATORS” (priority 2009, published 2012)
